# Test results: patent US8440710B2, “HSL inhibitors useful in the treatment of diabetes” (Hoffmann-La Roche Inc., priority 2009, dated 2013)
# Target: T1, human HSL (Homo sapiens, UniProt Q05469)
# T1 construct: generate a full length human HSL ORF with a 3′-His6 tag; made in house; host or cells: High 5 insect cells (baculovirus, pFast-BAC)
# T1 sequence (Q05469 1-1076): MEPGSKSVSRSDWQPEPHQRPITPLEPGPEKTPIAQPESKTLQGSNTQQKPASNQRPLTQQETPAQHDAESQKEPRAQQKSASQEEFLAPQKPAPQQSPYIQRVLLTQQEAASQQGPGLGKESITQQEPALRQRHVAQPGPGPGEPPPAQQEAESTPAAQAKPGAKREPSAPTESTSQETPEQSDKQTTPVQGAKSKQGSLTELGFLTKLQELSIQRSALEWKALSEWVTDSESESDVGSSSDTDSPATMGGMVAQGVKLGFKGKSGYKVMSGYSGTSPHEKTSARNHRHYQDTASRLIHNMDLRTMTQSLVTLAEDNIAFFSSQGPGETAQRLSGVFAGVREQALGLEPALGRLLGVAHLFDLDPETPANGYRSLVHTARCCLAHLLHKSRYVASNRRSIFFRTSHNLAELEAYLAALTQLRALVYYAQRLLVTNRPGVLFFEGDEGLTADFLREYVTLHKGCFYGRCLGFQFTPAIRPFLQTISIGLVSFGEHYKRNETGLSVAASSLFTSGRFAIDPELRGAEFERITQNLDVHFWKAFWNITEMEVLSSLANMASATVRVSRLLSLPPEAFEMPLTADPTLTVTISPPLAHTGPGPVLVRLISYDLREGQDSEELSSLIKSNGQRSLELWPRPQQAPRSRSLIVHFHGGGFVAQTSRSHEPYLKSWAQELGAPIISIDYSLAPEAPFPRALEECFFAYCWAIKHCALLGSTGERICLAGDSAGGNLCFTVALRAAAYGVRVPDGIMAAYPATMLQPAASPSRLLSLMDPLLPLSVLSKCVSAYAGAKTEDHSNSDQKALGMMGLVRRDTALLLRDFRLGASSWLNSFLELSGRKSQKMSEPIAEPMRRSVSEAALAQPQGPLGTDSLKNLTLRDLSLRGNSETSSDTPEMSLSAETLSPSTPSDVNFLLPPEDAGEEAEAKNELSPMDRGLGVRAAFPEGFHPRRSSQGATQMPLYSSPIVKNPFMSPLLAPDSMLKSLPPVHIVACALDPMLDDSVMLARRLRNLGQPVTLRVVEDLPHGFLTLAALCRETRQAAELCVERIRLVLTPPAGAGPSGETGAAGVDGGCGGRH
# Assay: Human Hormone-Sensitive Lipase (HSL) enzyme inhibition assay (colorimetric, DMPT substrate)
# Type: biochemical
# Conditions: human full length HSL-His6, 2,3-dimercapto-1-propanol tributyrate substrate, 37° C. 20 minutes, absorbance at 405 nm; read-out: HSL hum IC50
# Description: Production of Human Full Length Hormone Sensitive Lipase-His^6:
# 1) Cloning: cDNA was prepared from commercial human brain polyA+ RNA and used as a template in overlapping PCR to generate a full length human HSL ORF with a 3′-His6 tag. This full length insert was cloned into the pFast-BAC vector and the DNA-sequence of several single clones was verified. DNA from a correct full length clone with the 3′His6 tag was used to transform the E. coli strain DH10BAC. Resulting bacmid DNA was used to generate a titered baculovirus stock for protein generation. The sequence of the encoded HSL conforms to Swissprot entry Q05469, with the additional C-terminal His6-tag. 2) Protein purification: Culture: 5.5 L, High 5 cells expressing human full length HSL-His^6, 48 hr., containing 25 μM E-64. Cell count: […], 90% viable. Cells were thawed. On ice, cells were suspended in Base Buffer containing 10% glycerol, 25 mM Tris-Cl, 300 mM NaCl, 10 mM imidazole, 10 mM 2-mercaptoethanol, 2 μg pepstatin/ml, 2 μg leupeptin/ml, 2 μg antipain/ml, pH 8.0 at 4° C. in a final volume of 475 ml with 3.75×10^7 cells/ml. […] was done at 3×30 sec., Lubrol PX was added to 0.2% final concentration followed by stirring for 15 min. at 4° C. and centrifugation at 25 k×g, 60 min., 4° C. Soluble proteins were mixed with 60 ml of pre-washed and equilibrated Ni-NTA Agarose (Qiagen 30210) followed by tumbling end-over-end, 45 min., 4° C., centrifugation 1000 rpm 5 min and letting resin settle 5 min. Supernatant was removed, the resin washed in the centrifuge vessel using 5 volumes of Base Buffer containing 0.2% Lubrol PX. Centrifugation was done again, then the supernatant discarded. The resin was poured onto a 0.8 μm membrane in a disposable filter unit (Nalge 450-0080), and washed with 5 volumes of Base Buffer containing 0.2% Lubrol PX. It was then washed with 30 volumes of Base Buffer containing 60 mM imidazole pH 7.5 at 4° C. The protein was eluated with 5 volumes of 25 mM Tris-Cl, 300 mM NaCl, 200 mM imidazole, 10 mM 2-mercaptoethanol, pH 7.5 at 4° C. by tumbling resin with buffer end-over-end, 30 min., 4° C. The resin was captured on a 0.2 μm membrane disposable filter unit (Millipore SCGP U02 RE) and the eluate collected in the reservoir. The eluate was concentrated using a 30 k MWCO centrifugal filter device (Sartorius Vivascience Vivacell 100, VC1022), to 20 ml. It was then dialyzed overnight at 4° C., two times against 2 L of 10% glycerol, 25 mM Tris-Cl, 300 mM NaCl, 0.2 mM EDTA, 0.2 mM DTT, pH 7.5 at 4° C. The protein was filtered using a 0.22 μm disposable filter unit (Millipore SCGP00525). The protein concentration was calculated from absorbance at 280 nm, using 280=0.67 cm-1 mg-1. Yield was 235 mg, total. The protein was stored at −80° C. Human Hormone-Sensitive Lipase (HSL) Enzyme Inhibition Assay:
# HSL enzyme activity was measured by a colorimetric assay using 2,3-dimercapto-1-propanol tributyrate (Aldrich, St. Louis, Mo.) as a substrate. Typically, 1.5 mM 2,3-dimercapto-1-propanol tributyrate (DMPT) in 100 mM MOPS, pH 7.2, 0.2 mg/ml fatty acid-free BSA was prepared by sonication at 4° C. to homogenous suspension. Test compounds (2 mM stock in DMSO) were diluted 3 fold in series in DMSO. Compound solutions were diluted 24 fold in 1.5 mM DMPT containing solution and 18 ul per well was added to 384-well microplates (Corning Costar). Twelve microliters per well of human HSL (15 ug/ml) was added and the reaction mixture was incubated at 37° C. for 20 minutes. Six microliters of 12 mM dithio-bis-(2-nitrobenzoic acid) (DTNB) in DMSO plus 1.2% SDS and 0.6% Triton X-100 were added and the mixture was incubated at room temperature for 15 minutes. Product production was monitored by reading absorbance at 405 nm on an Envision Reader (PerkinElmer Life and Analytical Sciences, Shelton, Conn.).
row,SMILES,IC50
1,"O=C1N(c2ccc(OC(F)(F)F)cc2)CC[C@]12CC[C@@H](O)CC2 [Example 1, (5α,8β)-8-Hydroxy-2-(4-trifluoromethoxy-phenyl)-2-aza-spiro[4.5]decan-1-one]",470 nM
2,"O=C1N(c2ccc(OC(F)(F)F)cc2)CC[C@]12CC[C@H](O)CC2 [Example 2, (5α,8α)-8-Hydroxy-2-(4-trifluoromethoxy-phenyl)-2-aza-spiro[4.5]decan-1-one]",150 nM
3,"COc1ccc(N2CC[C@]3(CC[C@@H](OCc4ccccc4)CC3)C2=O)cc1 [Example 3, (5α,8β)-8-Benzyloxy-2-(4-methoxy-phenyl)-2-aza-spiro[4.5]decan-1-one]",610 nM
4,"CCc1ccc(N2CC[C@]3(CC[C@@H](OCc4ccccc4)CC3)C2=O)cc1 [Example 4, (5α,8β)-8-Benzyloxy-2-(4-ethyl-phenyl)-2-aza-spiro[4.5]decan-1-one]",240 nM
5,"CCc1ccc(N2CC[C@]3(CC[C@@H](O)CC3)C2=O)cc1 [Example 5, (5α,8β)-2-(4-Ethyl-phenyl)-8-hydroxy-2-aza-spiro[4.5]decan-1-one]",2370 nM
6,"CCCNC(=O)O[C@H]1CC[C@@]2(CCN(c3ccc(CC)cc3)C2=O)CC1 [Example 6, Propyl-carbamic acid [(5α,8β)-2-(4-ethyl-phenyl)-1-oxo-2-aza-spiro[4.5]dec-8-yl]ester]",100 nM
7,"CCc1ccc(N2CC[C@]3(CC[C@@H](OC(=O)NCc4cccc(F)c4)CC3)C2=O)cc1 [Example 7, (3-Fluoro-benzyl)-carbamic acid [(5α,8β)-2-(4-ethyl-phenyl)-1-oxo-2-aza-spiro[4.5]dec-8-yl]ester]",70 nM
8,"CCc1ccc(N2CC[C@]3(CC[C@@H](OC(=O)Nc4ccccc4)CC3)C2=O)cc1 [Example 8, Phenyl-carbamic acid [(5α,8β)-2-(4-ethyl-phenyl)-1-oxo-2-aza-spiro[4.5]dec-8-yl]ester]",270 nM
9,"O=C1N(c2ccc(OC(F)(F)F)cc2)CC[C@]12CC[C@@H](OCc1ccccc1)CC2 [Example 9, (5α,8β)-8-Benzyloxy-2-(4-trifluoromethoxy-phenyl)-2-aza-spiro[4.5]decan-1-one]",190 nM

# More lines, now with the values ahead:
row,IC50,SMILES
1,220 nM,"CC(Oc1ccc(N2CCC3(CCC(O)CC3)C2=O)cc1)C(F)(F)F (mixture of isomers) [Example 162, 8-Hydroxy-2-[4-(2,2,2-trifluoro-1-methyl-ethoxy)-phenyl]-2-aza-spiro[4.5]decan-1-one]"
2,30 nM,"CCC[C@]1(O)CC[C@]2(CCN(c3ccc(C(O)C(F)(F)F)cc3)C2=O)CC1 (mixture of isomers) [Example 133, (5α,8α)-8-Hydroxy-8-propyl-2-(4-(2,2,2-trifluoro-1-hydroxyethyl)phenyl)-2-aza-spiro[4.5]decan-1-one]"
3,10 nM,"CC(C)(C)c1ccc(N2CCC3(CCC(C(O)C(F)(F)F)CC3)C2=O)cc1 (single isomer, unassigned) [Example 360, (5α,8β)-2-(4-tert-Butyl-phenyl)-8-(2,2,2-trifluoro-1-hydroxy-ethyl)-2-aza-spiro[4.5]decan-1-one]"
4,110 nM,"CC(C)(C)c1ccc(N2CCC3(CCC(C(O)C(F)(F)F)CC3)C2=O)cc1 (single isomer, unassigned) [Example 361, (5α,8α)-2-(4-tert-Butyl-phenyl)-8-(2,2,2-trifluoro-1-hydroxy-ethyl)-2-aza-spiro[4.5]decan-1-one]"
5,60 nM,"O=C(NCc1cccc(F)c1)O[C@H]1CC[C@@]2(CCN(c3ccc(OC(F)(F)F)cc3)C2=O)CC1 [Example 10, (3-Fluoro-benzyl)-carbamic acid [(5α,8β)-1-oxo-2-(4-trifluoromethoxy-phenyl)-2-aza-spiro[4.5]dec-8-yl]ester]"
6,40 nM,"CCCNC(=O)O[C@H]1CC[C@@]2(CCN(c3ccc(OC(F)(F)F)cc3)C2=O)CC1 [Example 11, Propyl-carbamic acid [(5α,8β)-1-oxo-2-(4-trifluoromethoxy-phenyl)-2-aza-spiro[4.5]dec-8-yl]ester]"
7,60 nM,"COc1cccc(CNC(=O)O[C@H]2CC[C@@]3(CCN(c4ccc(OC(F)(F)F)cc4)C3=O)CC2)c1 [Example 12, (3-Methoxy-benzyl)-carbamic acid [(5α,8β)-1-oxo-2-(4-trifluoromethoxy-phenyl)-2-aza-spiro[4.5]dec-8-yl]ester]"
8,90 nM,"COc1ccc(CNC(=O)O[C@H]2CC[C@@]3(CCN(c4ccc(OC(F)(F)F)cc4)C3=O)CC2)cc1 [Example 13, (4-Methoxy-benzyl)-carbamic acid [(5α,8β)-1-oxo-2-(4-trifluoromethoxy-phenyl)-2-aza-spiro[4.5]dec-8-yl]ester]"
9,20 nM,"O=C(NCc1ccccc1F)O[C@H]1CC[C@@]2(CCN(c3ccc(OC(F)(F)F)cc3)C2=O)CC1 [Example 14, (2-Fluoro-benzyl)-carbamic acid [(5α,8β)-1-oxo-2-(4-trifluoromethoxy-phenyl)-2-aza-spiro[4.5]dec-8-yl]ester]"
10,70 nM,"O=C(NCc1ccc(F)cc1)O[C@H]1CC[C@@]2(CCN(c3ccc(OC(F)(F)F)cc3)C2=O)CC1 [Example 15, (4-Fluoro-benzyl)-carbamic acid [(5α,8β)-1-oxo-2-(4-trifluoromethoxy-phenyl)-2-aza-spiro[4.5]dec-8-yl]ester]"
11,100 nM,"Cc1cccc(CO[C@H]2CC[C@@]3(CCN(c4ccc(OC(F)(F)F)cc4)C3=O)CC2)n1 [Example 16, (5α,8β)-8-(6-Methyl-pyridin-2-ylmethoxy)-2-(4-trifluoromethoxy-phenyl)-2-aza-spiro[4.5]decan-1-one]"
